The source of these data is US10160767B2 (Institute of Pharmacology and Toxicology Academy of …, priority 2014, dated 2018).

For data set [1], the system named is renal cell carcinoma (RCC). The note with it: early RCC patients; cited from earlier work.
For another data set, the system named is T cell proliferation. To be noted: read-out: Median inhibitory concentration (IC50), T cell proliferation; cited from earlier work.
Data set [2] has as its system multi-drug resistant tumor cell line MES-SA. Briefly: Inhibition of drug-resistant tumor cell line, Cell Titer-Glo cell viability; therapeutic index against MRC5 cells. The note with it: Homo sapiens, 72 h. In kind it is cell-based. How it is done:
The activity of example compounds to multi-drug resistant tumor cell line MES-SA was evaluated.
Experimental materials: DMEM high-glucose cell culture media (Hyclone Company), fetal calf serum (FBS) (Gibco Company), penicillin and streptomycin were purchased from North China Pharmaceutical Co., Ltd, phosphate buffer saline (PBS) was purchased from Gibco Company, Cell Titer-Glo® cell viability detection reagent was purchased from Promega Company, pancreatin and dimethylsulfoxide (DMSO) were products of Sigma Company. MES-SA cell line (human uterine sarcoma cell line) was purchased from ATCC. MRC5 cell (human embryonic lung fibroblast) was purchased from ATCC.
(§1) The cells were inoculated on a 96-well plate with white wall and penetrative bottom (Costar) in amount of 5000 cells per well, cultured at condition of 37° C., 5% CO2 for 24 h. The compounds to be tested were dissolved with DMSO and diluted to 100 mM, to obtain mother liquids of the compounds.
DMEM culture solution containing 2% FBS was used to diluted the compounds, in which concentration gradients were 3, and concentration range was 100 μM to 0.046 μM. The compounds in various dilution degrees were added to the cultured cells on the 96-well plate, 100 μl per well. Culture was performed at 37° C., CO2 for 72 h, supernatant was discarded, and cell viability detection test was performed.
(§2) AfterCell Titer-Glo® reaction buffer solution was mixed with isometric substrate, the mixture was added to 96-well plate, 100 μl per well. Cell lysis was induced by horizontally shaking for 4 min. Reaction signal was stabilized by balancing at room temperature for 15 min. Chemiluminescence units in each well of the 96-well plate were detected by using chemiluminescence detector.
Inhibition rates at different dilution degrees of each compound were calculated according to chemiluminescence value of each well, and Origin 8.0 software was used for S-type curve fitting of each compound, and for calculating EC50 value. The ratio of EC50 value of compound for MRC5 cell to EC50 value of compound for MES-SA cell was used as therapeutic index for the compound.
For orientation: In ATP-based viability assays light output follows the ATP content of the culture.

In another data set the test system is tumor cell A549. Briefly: Tumor cell inhibition, Cell Titer-Glo cell viability. In kind it is cell-based. To be noted: Homo sapiens, A549 cells, 72 h. Here is the method:
The activities of example compounds to tumor cell A549 were evaluated.
Experimental materials: DMEM high-glucose cell culture media (Hyclone Company), fetal calf serum (FBS) (Gibco Company), penicillin and streptomycin were purchased from North China Pharmaceutical Co., Ltd, phosphate buffer saline (PBS) was purchased from Gibco Company, Cell Titer-Glo® cell viability detection reagent was purchased from Promega Company, pancreatin and dimethylsulfoxide (DMSO) were products of Sigma Company. A549 cell line (human lung adenocarcinoma cell line) was purchased from ATCC.
as §1
DMEM culture solution containing 2% FBS was used to diluted the compounds, in which concentration gradients were 3, and concentration range was 100 μM to 3 nM. The compounds in various dilution degrees were added to the cultured cells on the 96-well plate, 100 μl per well. Culture was performed at 37° C., CO2 for 72 h, supernatant was discarded, and cell viability detection test was performed.
as §2
Inhibition rates at different dilution degrees of each compound were calculated according to chemiluminescence value of each well, and Origin 8.0 software was used for S-type curve fitting of each compound, and for calculating EC50 value.

Data set [3] in a line: Toxicity on rat primary hepatocytes (ATP detection). In kind it is cell-based. To be noted: SD, ATP detection reagent. How it is done:
Experimental method: Liver lobes of SD rat were placed in sterilized plate, added with a suitable amount of liver cell cleaning solution (precooled at 4° C.), the liver was shredded and fibrous connective tissues were removed to form a liver cell suspension, screened with 200 mesh screen and placed in 50 ml centrifuge tube, centrifuged at 500 rpm for 1-2 min; the supernatant was removed, the precipitate was added with 20-30 ml of RPMI […] (precooled at 4° C.) and washed 3 times; isovolumetric liver cell suspension was taken and suspended in Percoll separating solution I, mixed by turning upside down, centrifuged at 4° C. and 800 rpm for 10 min, the supernatant was discarded, the liver cells were washed with PBS once (800 rpm, 5 min). The liver cell precipitate was added into liver cell culture fluid, resuspended and diluted to 10 ml, and a suitable amount thereof was taken for counting and survival rate was determined by using 0.4% trypan blue. The liver cells with survival rate of 90% or more were inoculated in a density of 2×10^3 on 96-well plate, 100 μl of RPMI 1640 culture medium was added to each well, culture was performed at 37° C., 5% CO2 for 24 h. The compounds were diluted with DMSO to desired concentrations and added to each well in an amount of 1 μl (final compound concentrations were usually initiated from 1000 μM, 10× gradient dilution, 6 gradients), and blank control was added with 1 μl of DMSO.
After the cells were cultured at 37° C., 5% CO2 for 24 h, 100 μl of ATP detection reagent was added, incubated under shock for 15 min. fluorescence values of wells were read by ELIASA. Cell survival rates for each example compounds were calculated, and then GIs values (concentrations of added compounds at which growth of 50% cells was inhibited) were calculated.

Data set [4] concerns metastatic soft-tissue or bone sarcomas. The note with it: phase-III; cited from earlier work.
Data set [5] can be described thus: Solubility test (Chinese Pharmacopoeia 2010, Part II). The class given is physicochemical. The note with it: water, thermodynamic from solid.
The conditions of data set [6]: cited from earlier work.
For another data set, the target named is mTORC1 (Homo sapiens, UniProt P42345). Briefly: Inhibition of mTORC1 in A549 cells: phosphorylation of Thr389 of S6K1 by Western blot. In kind it is cell-based. The note with it: compound 20 μM with insulin 167 nM, 2 h, semi-quantitative. For orientation: A western blot detects proteins with antibodies after separation by electrophoresis.

A value given as a limit tells only on which side of the number the result lay.

Source text for mTORC1: Molecular mechanism of action of the example compounds in tumor cell A549.
Experimental materials: DMEM high-glucose cell culture media (Hyclone Company), fetal calf serum (FBS) (Gibco Company), penicillin and streptomycin were purchased from North China Pharmaceutical Co., Ltd, phosphate buffer saline (PBS) was purchased from Gibco Company, pancreatic enzyme and dimethylsulfoxide (DMSO) were products of Sigma Company. A549 cell line (human lung adenocarcinoma cell line) was purchased from ATCC. Mouse anti-human p-p70S6K(T389) monoclonal antibody was purchased from Cell Signaling Technology Company, mouse anti-human p70S6K monoclonal antibody was purchased from Cell Signaling Technology Company, mouse anti-human p-AKT (S473) monoclonal antibody was purchased from Cell Signaling Technology Company, mouse anti-human AKTmonoclonal antibody was purchased from Cell Signaling Technology Company. Horseradish peroxidase-labeled goat anti-mouse, goat anti-mouse monoclonal antibodies were purchased from Cell Signaling Technology Company. […]

With `CO[C@H]1C[C@@H]2CC[C@@H](C)[C@@](O)(O2)C(=O)C(=O)N2CCCC[C@H]2C(=O)O[C@H]([C@H](C)C[C@@H]2CC[C@@H](OC(=O)C(C)(CO)CO)[C@H](OC)C2)CC(=O)[C@H](C)/C=C(\C)[C@@H](O)[C@@H](OC)C(=O)[C@H](C)C[C@H](C)/C=C/C=C/C=C/1C` [Temsirolimus], the “Extension of median survival time” value in data set [1] is given as 3-6 months. Further, in the data set with T cell proliferation, the IC50 was 0.0008 µM.

Take `CO[C@H]1C[C@@H]2CC[C@@H](C)[C@@](O)(O2)C(=O)C(=O)N2CCCC[C@H]2C(=O)O[C@H]([C@H](C)C[C@@H]2CC[C@@H](OC(=O)C[n+]3ccc(C)cc3)[C@H](OC)C2)CC(=O)[C@H](C)/C=C(\C)[C@@H](O)[C@@H](OC)C(=O)[C@H](C)C[C@H](C)/C=C/C=C/C=C/1C.[Br-]` [Example 13, 42-O-carbonylmethyl-(4-methyl-pyridine bromide salt-1-yl)-rapamycin]: the melting point lay in the range of 157 to 160 °C. Moreover, the IC50 in data set [2] is < 0.046 µM. In the data set with tumor cell A549, this molecule gave an IC50 of 44.8 µM. Besides, the GI50 at 24 h in [3] was 44.9 µM.

`CO[C@H]1C[C@@H]2CC[C@@H](C)[C@@](O)(O2)C(=O)C(=O)N2CCCC[C@H]2C(=O)O[C@H]([C@H](C)C[C@@H]2CC[C@@H](OC(=O)C[n+]3cccc(C)c3)[C@H](OC)C2)CC(=O)[C@H](C)/C=C(\C)[C@@H](O)[C@@H](OC)C(=O)[C@H](C)C[C@H](C)/C=C/C=C/C=C/1C.[Br-]` [Example 11, 42-O-carbonylmethyl-(3-methyl-pyridine bromide salt-1-yl)-rapamycin] showed a melting point of 138 to 140 °C. Besides, the IC50 in data set [2] is < 0.046 µM. This molecule also had an IC50 in the data set on tumor cell A549 of 52.8 µM. The molecule also yielded a GI50 at 24 h in data set [3] of 71.8 µM.

`CO[C@H]1C[C@@H]2CC[C@@H](C)[C@@](O)(O2)C(=O)C(=O)N2CCCC[C@H]2C(=O)O[C@H]([C@H](C)C[C@@H]2CC[C@@H](OP(C)(C)=O)[C@H](OC)C2)CC(=O)[C@H](C)/C=C(\C)[C@@H](O)[C@@H](OC)C(=O)[C@H](C)C[C@H](C)/C=C/C=C/C=C/1C` [Ridaforolimus]: in [4], the “Mortality risk reduction in comparison with placebo group” value is 28%.

In turn, `CO[C@H]1C[C@@H]2CC[C@@H](C)[C@@](O)(O2)C(=O)C(=O)N2CCCC[C@H]2C(=O)O[C@H]([C@H](C)C[C@@H]2CC[C@@H](OC(=O)C[n+]3ccc(C)cc3)[C@H](OC)C2)CC(=O)[C@H](C)/C=C(\C)[C@@H](OC(=O)C[n+]2ccc(C)cc2)[C@@H](OC)C(=O)[C@H](C)C[C@H](C)/C=C/C=C/C=C/1C.[Br-].[Br-]` [Example 14, 31,42-O-carbonylmethyl-(4-methyl-pyridine bromide salt-1-yl)-rapamycin] yielded a melting point of 181 to 183 °C. Moreover, in data set [2], the IC50 was < 0.046 µM. The solubility in data set [5] was found to be 120 mg/mL. Further, in the data set on tumor cell A549, the IC50 was found to be 44 µM.

For the molecule `CO[C@H]1C[C@@H]2CC[C@@H](C)[C@@](O)(O2)C(=O)C(=O)N2CCCC[C@H]2C(=O)O[C@H]([C@H](C)C[C@@H]2CC[C@@H](OCCO)[C@H](OC)C2)CC(=O)[C@H](C)/C=C(\C)[C@@H](O)[C@@H](OC)C(=O)[C@H](C)C[C@H](C)/C=C/C=C/C=C/1C` [Everolimus, 42-O-(2-hydroxyethyl)-rapamycin], the Half-life in data set [6] (in human body) was 16 to 19 h. The Oral bioavailability in data set [6] (oral) was 15%-30%.

For the molecule `CO[C@H]1C[C@@H]2CC[C@@H](C)[C@@](O)(O2)C(=O)C(=O)N2CCCC[C@H]2C(=O)O[C@H]([C@H](C)C[C@@H]2CC[C@@H](O)[C@H](OC)C2)CC(=O)[C@H](C)/C=C(\C)[C@@H](O)[C@@H](OC)C(=O)[C@H](C)C[C@H](C)/C=C/C=C/C=C/1C` [Rapamycin, reference compound], the IC50 in data set [2] is < 0.046 µM; in the data set with tumor cell A549, 49.4 µM. The “Inhibition of mTORC1 (phosphorylation of Thr389 of S6K1)” value at mTORC1 is “could only inhibit mTORC1”. Also, halving of growth in [3] (GI50 at 24 h) required 24.8 µM.

As to `CO[C@H]1C[C@@H]2CC[C@@H](C)[C@@](O)(O2)C(=O)C(=O)N2CCCC[C@H]2C(=O)O[C@H]([C@H](C)C[C@@H]2CC[C@@H](O)[C@H](OC)C2)CC(=O)[C@H](C)/C=C(\C)[C@@H](OC(=O)C[n+]2ccc(C)cc2)[C@@H](OC)C(=O)[C@H](C)C[C@H](C)/C=C/C=C/C=C/1C.[Br-]` [Example 17, 31-O-carbonylmethyl-(4-methyl-pyridine bromide salt-1-yl)-rapamycin], the melting point is 145 to 148 °C. For the same molecule, the IC50 in [2] is < 0.046 µM. The molecule also yielded an IC50 in the data set with tumor cell A549 of 40.8 µM. The same molecule showed a concentration for 50% growth inhibition (GI50) at 24 h in data set [3] of 54.3 µM.

What is called melting point is the temperature, or range, at which the solid turns liquid. Broadly, the GI50 is the concentration that inhibits growth by half. Lower therefore signals greater sensitivity of the cells. Broadly, the solubility is how much of the substance goes into solution per volume. Higher therefore signals a readily soluble substance.
